Data on 18 molecules can be found in patent US9670227B2, “Thienopyrimidine derivatives, a process for their preparation and pharmaceutical compositions containing them” (LES LABORATOIRES SERVIER, priority 2013, dated 2017).

Sequence of Mcl-1 protein (Q07820 whole entry): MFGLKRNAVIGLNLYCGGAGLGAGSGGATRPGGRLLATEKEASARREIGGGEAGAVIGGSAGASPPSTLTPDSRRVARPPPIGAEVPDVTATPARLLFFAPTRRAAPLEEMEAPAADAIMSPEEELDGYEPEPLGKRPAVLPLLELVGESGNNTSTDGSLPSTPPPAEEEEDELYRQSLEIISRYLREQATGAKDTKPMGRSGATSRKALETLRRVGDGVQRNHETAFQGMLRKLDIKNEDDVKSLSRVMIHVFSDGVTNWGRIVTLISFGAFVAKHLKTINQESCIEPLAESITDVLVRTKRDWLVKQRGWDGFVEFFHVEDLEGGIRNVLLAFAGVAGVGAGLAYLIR

One assay addresses Mcl-1 protein (UniProtKB primary accession number: Q07820) (Homo sapiens, UniProt Q07820). In words: Inhibition of Mcl-1 by fluorescence polarisation, Method 1. It is filed as binding. To be noted: @ 10 uM test compound. Put shortly: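 FP readout of relative binding potency. Mcl-1 5 nM final, fluorescein-labelled ligand 1 nM final; buffer 10 mM HEPES, 150 mM NaCl, 0.05% Tween 20, pH 7.4; 11-pt dilution series, 5% DMSO final.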
On to `Cc1c(-c2c(-c3ccco3)sc3ncnc(O[C@@H](C(=O)O)c4ccccc4)c23)ccc(OCCN2CCN(C)CC2)c1Cl` [Example 339, (2R)-{[(5Ra)-5-{3-chloro-2-methyl-4-[2-(4-methylpiperazin-1-yl)ethoxy]phenyl}-6-(furan-2-yl)thieno[2,3-d]pyrimidin-4-yl]oxy}(phenyl)ethanoic acid], for which the “percentage fluorescence polarisation inhibition (Mcl-1 FP), partial inhibitors” value was determined as 18.85% @ 10 uM.

The same assay, now with this note: fluorescence polarisation test; Method 2 values are underlined in the patent (underlining not visible here); read-out: IC50 (M) Mcl-1 FP.
Consider `Cc1c(-c2c(-c3ccc(F)cc3)sc3ncnc(OC(Cc4ccccc4OCc4ccnc(N5CCOCC5)n4)C(=O)O)c23)ccc(OCCN2CCN(C)CC2)c1Cl` [Example 52, (2R)-2-{[(5Sa)-5-{3-chloro-2-methyl-4-[2-(4-methylpiperazin-1-yl)ethoxy]phenyl}-6-(4-fluorophenyl)thieno[2,3-d]pyrimidin-4-yl]oxy}-3-(2-{[2-(morpholin-4-yl)pyrimidin-4-yl]methoxy}phenyl)propanoic acid], for which the IC50 stood at 5.6e-09 M.

Take `Cc1c(-c2c(-c3ccco3)sc3ncnc(OC(C(=O)O)c4ccccc4)c23)ccc(OCCN2CCN(C)CC2)c1Cl` [Example 340, (2R)-{[(5Sa)-5-{3-chloro-2-methyl-4-[2-(4-methylpiperazin-1-yl)ethoxy]phenyl}-6-(furan-2-yl)thieno[2,3-d]pyrimidin-4-yl]oxy}(phenyl)ethanoic acid]: the IC50 came to 6.7e-07 M.

Regarding `Cc1c(-c2c(-c3ccc(F)o3)sc3ncnc(OC(Cc4ccccc4OCc4ccnn4C(C)C)C(=O)O)c23)ccc(OCCN2CCN(C)CC2)c1Cl` [Example 182, (2R)-2-{[(5Sa)-5-{3-chloro-2-methyl-4-[2-(4-methylpiperazin-1-yl)ethoxy]phenyl}-6-(5-fluorofuran-2-yl)thieno[2,3-d]pyrimidin-4-yl]oxy}-3-(2-{[1-(propan-2-yl)-1H-pyrazol-5-yl]methoxy}phenyl)propanoic acid], the IC50 is 4.4e-09 M.

Consider `Cc1c(-c2c(-c3ccc(F)o3)sc3ncnc(OC(Cc4ccccc4OCc4ccccn4)C(=O)O)c23)ccc(OCCN2CCN(C)CC2)c1Cl` (single isomer, unassigned) [Example 166], for which the half-inhibitory concentration (IC50) was 6e-09 M.

As for `Cc1c(-c2c(-c3ccc(F)cc3)sc3ncnc(OC(Cc4ccccc4OCC(F)(F)F)C(=O)O)c23)ccc(OCCN2CCN(C)CC2)c1Cl` [Example 3, (2R)-2-{[(5Sa)-5-{3-chloro-2-methyl-4-[2-(4-methylpiperazin-1-yl)ethoxy]phenyl}-6-(4-fluorophenyl)thieno[2,3-d]pyrimidin-4-yl]oxy}-3-[2-(2,2,2-trifluoroethoxy)phenyl]propanoic acid], the IC50 was 8.9e-09 M.

Consider `Cc1c(-c2c(-c3ccc(F)cc3)sc3ncnc(OC(Cc4ccccc4OCc4ccnn4C(C)C)C(=O)O)c23)ccc(OCCN2CCN(C)CC2)c1Cl` [Example 71, (2R)-2-{[(5Sa)-5-{3-chloro-2-methyl-4-[2-(4-methylpiperazin-1-yl)ethoxy]phenyl}-6-(4-fluorophenyl)thieno[2,3-d]pyrimidin-4-yl]oxy}-3-(2-{[1-(propan-2-yl)-1H-pyrazol-5-yl]methoxy}phenyl)propanoic acid], for which the IC50 worked out at 9.4e-09 M.

Staying with this assay, now noted: fluorescence polarisation; Method 1, or Method 2; read-out: IC50 (M) Mcl-1 FP.
In the case of `CCc1sc2ncnc(O[C@@H](Cc3cccc4ccoc34)C(=O)O)c2c1-c1ccc(OCCN2CCN(C)CC2)c(Cl)c1C` [Example 462, (2S)-3-(1-benzofuran-7-yl)-2-[((5Ra)-5-{3-chloro-2-methyl-4-[2-(4-methylpiperazin-1-yl)ethoxy]phenyl}-6-ethylthieno[2,3-d]pyrimidin-4-yl)oxy]propanoic acid], the IC50 amounted to 3.7e-05 M.

For the molecule `CCc1sc2ncnc(O[C@@H](Cc3ccccc3OC)C(=O)O)c2c1-c1ccc(O)c(Cl)c1C` (single isomer, unassigned) [Example 679], the IC50 turned out to be 8.9e-07 M.

`CC#Cc1sc2ncnc(O[C@H](Cc3ccccc3OC)C(=O)O)c2c1-c1ccc(CCCN(C)C)c(Cl)c1C` (single isomer, unassigned) [Example 479]: the IC50 stood at 1.1e-08 M.

Regarding `CCc1sc2ncnc(OC(Cc3ccccc3)C(=O)O)c2c1-c1cc2c(c(Cl)c1C)OCC(=O)N2` [Example 441, (2R)-2-{[(5Sa)-5-(8-chloro-7-methyl-3-oxo-3,4-dihydro-2H-1,4-benzoxazin-6-yl)-6-ethylthieno[2,3-d]pyrimidin-4-yl]oxy}-3-phenylpropanoic acid], the IC50 turned out to be 2.7e-08 M.

For `CCc1sc2ncnc(OC(Cc3ccccc3)C(=O)O)c2c1-c1ccc(OCCN2CCN(C)CC2)cc1C` [Example 417, (2R)-2-[(6-ethyl-(5Sa)-5-{2-methyl-4-[2-(4-methylpiperazin-1-yl)ethoxy]phenyl}thieno[2,3-d]pyrimidin-4-yl)oxy]-3-phenylpropanoic acid], the IC50 was 1.5e-07 M.

Regarding `CCc1sc2ncnc(OC(Cc3ccccc3)C(=O)O)c2c1-c1cc(OCCN2CCN(C)CC2)ccc1C` [Example 440, (2R)-2-[(6-ethyl-(5Sa)-5-{2-methyl-5-[2-(4-methylpiperazin-1-yl)ethoxy]phenyl}thieno[2,3-d]pyrimidin-4-yl)oxy]-3-phenylpropanoic acid and (2S)-2-[(6-ethyl-(5Ra)-5-{2-methyl-5-[2-(4-methylpiperazin-1-yl)ethoxy]phenyl}thieno[2,3-d]pyrimidin-4-yl)oxy]-3-phenylpropanoic acid], the IC50 was determined as 3e-07 M.

For the molecule `CC#Cc1sc2ncnc(O[C@H](Cc3ccccc3OC)C(=O)O)c2c1-c1ccc(CCCN(C)C)c(Cl)c1C` (single isomer, unassigned) [Example 478], the IC50 was 5.3e-07 M.

Consider `Cc1c(Cl)cccc1-c1c(-c2ccco2)sc2ncnc(OC(Cc3ccccc3OCCN3CCN(C)CC3)C(=O)O)c12` [Example 666, (2R)-2-{[(5Sa)-5-(3-chloro-2-methylphenyl)-6-(furan-2-yl)thieno[2,3-d]pyrimidin-4-yl]oxy}-3-{2-[2-(4-methylpiperazin-1-yl)ethoxy]phenyl}propanoic acid], for which the IC50 was 7.7e-08 M.

For `COc1ccccc1CC(Oc1ncnc2sc(-c3cccc(Oc4ccc(F)cc4)c3)c(-c3ccc(OCCN4CCN(C)CC4)c(Cl)c3C)c12)C(=O)O` [Example 556, (2R)-2-[((5Sa)-5-{3-chloro-2-methyl-4-[2-(4-methylpiperazin-1-yl)ethoxy]phenyl}-6-[3-(4-fluorophenoxy)phenyl]thieno[2,3-d]pyrimidin-4-yl)oxy]-3-(2-methoxyphenyl)propanoic acid], the IC50 is 1.2e-08 M.

The assay is the same for the next values; noted with them: test compound at 10 uM; Method 1, or Method 2 where the value is underlined (underlining not visible).
With `CCOC(=O)[C@@H](Cc1ccccc1OCc1ccnc(-c2ccccc2OC)n1)Oc1ncnc2sc(-c3ccc(F)cc3)c(-c3ccc(OCCN4CCN(C)CC4)c(Cl)c3C)c12` [Example 830, ethyl (2R)-2-{[(5Ra)-5-{3-chloro-2-methyl-4-[2-(4-methylpiperazin-1-yl)ethoxy]phenyl}-6-(4-fluorophenyl)thieno[2,3-d]pyrimidin-4-yl]oxy}-3-(2-{[2-(2-methoxyphenyl)pyrimidin-4-yl]methoxy}phenyl)propanoate], the “percentage fluorescence polarisation inhibition (Mcl-1 FP), partial inhibitors” value was −11.9% @ 10 uM.

For `CCOC(=O)[C@@H](Cc1ccccc1OCc1ccnc(-c2ccccc2F)n1)Oc1ncnc2sc(-c3ccc(F)cc3)c(-c3ccc(OCCN(C)C)c(Cl)c3C)c12` [Example 807, ethyl (2R)-2-{[(5Sa)-5-{3-chloro-4-[2-(dimethylamino)ethoxy]-2-methylphenyl}-6-(4-fluorophenyl)thieno[2,3-d]pyrimidin-4-yl]oxy}-3-(2-{[2-(2-fluorophenyl)pyrimidin-4-yl]methoxy}phenyl)propanoate], the “percentage fluorescence polarisation inhibition (Mcl-1 FP), partial inhibitors” value is 52.45% @ 10 uM.
